From patent US9132099B2, “Medical implants and methods for regulating the tissue response to vascular closure devices” (Vascular Therapies LLC, priority 2001, dated 2015)
Starred links: 1 amine or outer side, 2 acyl side, 3 side chain; linkers in the order of their positions; H or OH if unused. Positions of bridges follow the written chain, without caps; N, C: chain ends. Non-standard residues stand in square brackets, D forms with d. Residues, ends and D or L forms follow the SMILES beside them. Chains are numbered I, II in the order given. Actinocin(9to1) = Cc1c2oc3c(C)ccc(C(=O)[*:1])c3nc-2c(C(=O)[*:2])c(N)c1=O; NMeV = CN[C@H](C(=O)O)C(C)C; Sar = CNCC(=O)O

What was measured:
SMC = test: Smooth muscle cell inhibition on drug-saturated collagen matrix discs; type: cell-based; settings: collagen matrix disc, compound about 5 μg/cm^2, cells counted five days later
Protocol: (§1) Prefabricated collagen matrices were placed in different antiproliferative drug solutions until complete saturation occurred. […] The collagen matrices were saturated with these compounds at a concentration of 25 μg/ml lyophilized, washed with 0.066 M phosphate buffer of pH 7.4 at 37° C. for 24 hours and cut in the shape of a disc with density of compound of about 5 μg/cm^2. After washing, sterile discs 15 mm in diameter were placed in a 24-well culture plate, and cells were seeded at a density of 5,000/cm^2. Five days later, cell number was counted and enzymatic activity evaluated in the aliquots of media by chromogenic substrate hydrolysis and spectrophotometry.

smooth muscle cells = test: Growth of smooth muscle cells seeded on collagen matrices; type: cell-based; settings: with changes of media, 7 days observation
Protocol: To evaluate this parameter, smooth muscle cells at a density of 5,000 cells/cm^2 are seeded onto control tissue culture surface and testing matrices.

Elastase = Elastase activity in culture media, chromogenic substrate hydrolysis; type: biochemical; settings: aliquots of media, five days, plain matrix = 100
Protocol: as §1

Collagenase = Collagenase activity in culture media, chromogenic substrate hydrolysis; type: biochemical; settings: aliquots of media, five days, plain matrix = 100
Protocol: as §1, with “spectrophotometry. Among the tested agents in this comparative in vitro test, paclitaxel and rapamycin (sirolimus) performed similarly.” for “spectrophotometry.”

Fibroblast = Fibroblast inhibition on drug-saturated collagen matrix discs; type: cell-based; settings: collagen matrix disc, compound about 5 μg/cm^2, cells counted five days later
Protocol: as §1

[1] = In vitro elution of dexamethasone from collagen matrix; settings: by HPLC
Human Endothelial Cells = test: [3H]-thymidine uptake assay, human endothelial cells; type: cell-based
Protocol: (§2) Human smooth muscle cells and endothelial cells (Cambrex Corp., formerly Clonetics Corp., East Rutherford, N.J.) were seeded (100,000 cells) in 24-well plates overnight. Both cell types were grown and maintained in Opti-MEM (Invitrogen, Carlsbad, Calif.) and 5% fetal bovine serum at 37° C. in a 5% carbon dioxide and 95% atmospheric air. […] Each cell type was allowed to grow for […], last four hours in the presence of [^3H]-thymidine.
(§3) Proliferation of cells was quantified as new DNA synthesis using [^3H]-thymidine uptake assay. After 72 hours of culture, cells were washed twice with cold phosphate buffered saline (PBS), and 1 ml of methanol was added to the contents of each well. The plates were kept at 4° C. for 60 minutes, the cells then washed once with cold PBS, and 500 μl of 0.2 m M NaOH was added to each well, and the plates kept at 4° C. for 30 minutes. The contents of each well were transferred into scintillation vials, and liquid scintillation fluid was added to quantify radioactivity using a liquid scintillation counter and the results expressed as counts per minute. Results are shown in Tables 12 and 13 and corresponding FIGS. 16 and 17, respectively.

[2] = test system: Human Smooth Muscle Cells; test: [3H]-thymidine uptake assay, human smooth muscle cells; type: cell-based
Protocol: as §2, §3

[3] = Rate of drug release from collagen matrix in vitro, batch assay; type: physicochemical; settings: collagen matrix saturated with the drug
Protocol: Aliquots are collected at various time intervals from the wells. A combination of dispersed and conjugated forms is also prepared. […] The samples are placed in wells and 1 ml of elution media containing serum are added. Aliquots are taken every hour.
These measurements are made using batch assay and, therefore, represent release rates at 0 ml/min flow rate. The results are tabulated in Table 7 and graphically illustrated in FIG. 14. Concentrations of the antiproliferative drug are in μg/ml.

[4] = test system: PTFE vascular graft AV loop, venous anastomosis; test: Porcine PTFE arterio-venous graft model with perivascular rapamycin collagen sleeve; type: in vivo; settings: pigs
Protocol: A proof of principle study was performed using a porcine model. A total of six pigs were studied, two as controls and four as treated. A 6 mm PTFE vascular graft was anastomosed between the carotid artery on one side and the contralateral jugular vein. This created an arterio-venous (AV) loop that is similar in construction to the human hemodialysis access loop.
The animals were euthanized and the relevant segments dissected. […] Tissues from treated and untreated animals were obtained, and RNA was prepared and reverse transcribed to cDNA, which was amplified for housekeeping gene b-actin and p21 by PCR.

[5] = test system: PTFE A-V graft, venous anastamosis; test: PTFE A-V graft study, histological scoring of graft explants; type: in vivo
Excerpt: A 6.0 mm PTFE graft was anastamosed between the carotid artery and the jugular vein. A total of 19 animals were utilized for this study. At the time of surgical construction of the A-V graft, collagen matrix with or without the drug was implanted at the site of venous anastamosis. Five animals served as controls (Group A, plain collagen matrix, no drug); the remaining 14 animals received treatment. They were divided into two equal groups (B and C) of seven animals each. […] Animals (n=13) were euthanized after 1 month. Tissues were formalin fixed and sent for histology.
Histological assessment of graft explants was performed by examining the following components: (1) the venous anastamotic site; (a) luminal and (b) adventitial surfaces, (2) the venous end away from the anastamosis; (c) luminal and (d) adventitial surfaces and (3) the PTFE graft; (e) luminal and (f) abluminal surfaces away from the anastamosis (FIG. 2). The following parameters were evaluated: intimal thickening, inflammation, thrombus, fibrosis, hemorrhage/fibrin and calcification or any other pathological changes observed. Histological evaluation was scored on a 0 through 4 scale, where 0=no significant change, 1=minimal, 2=mild, 3=moderate and 4=severe.
P-values obtained from semiquantitative analysis of histological findings using ANOVA (t-test unpaired).

smooth muscle cell [6] = test: Inhibitory concentrations for smooth muscle cell in culture media
smooth muscle cell [7] = test: Heparin inhibition of smooth muscle cell proliferation; type: cell-based
Excerpt: In addition, diffusion of heparin from the sleeve can prevent thrombotic events on the inner surface of the shunt and damaged vessel wall for longer periods of time. Furthermore, the concentration of soluble heparin can be increased up to 20,000 U/cm^2 without changing the mechanical characteristics of the matrix. Therefore, anti-smooth muscle cell proliferation as well as antithrombotic effect can be prolonged.

[8] = In vitro elution of heparin from collagen-fibrin sleeve with rapamycin and heparin; type: physicochemical; settings: for Eluted Heparin Mass: buffer replenished each day
Excerpt: Combining macro- and micro-porosity may increase capacity of the device. Collagen and fibrin matrices were mixed to obtain such a combination. In addition, good mechanical characteristics of collagen improved stability of fibrin.
The collagen fibrin sheaths loaded with medicine (thickness 2 mm) were formed as tubular structures and externally crosslinked using high a concentration of glutaraldehyde (25%) for one minute. This sleeve was made planar on ten occasions, and the spiral shape was restored each time. […] In vitro elution of heparin continues for seven days. Heparin concentration was measured as in Example 10. Buffer for the dilution was replenished each day.

Row | Compound | SMC Inhibition % (SMC) [%] | Elastase Activity % (Elastase) [%] | Collagenase Activity % (Collagenase) [%] | Fibroblast Inhibition % (Fibroblast) [%] | effect on proliferation (new DNA synthesis) (Human Endothelial Cells) | effect on proliferation (new DNA synthesis) [2] | other results
1 | Cc1c2oc3c(C)ccc(C(=O)N[C@@H]4C(=O)N[C@H](C(C)C)C(=O)N5CCC[C@H]5C(=O)N(C)CC(=O)N(C)[C@@H](C(C)C)C(=O)O[C@@H]4C)c3nc-2c(C(=O)N[C@@H]2C(=O)N[C@H](C(C)C)C(=O)N3CCC[C@H]3C(=O)N(C)CC(=O)N(C)[C@@H](C(C)C)C(=O)O[C@@H]2C)c(N)c1=O [Actinomycin D] (I: T[dV]P[Sar][NMeV] / II: T[dV]P[Sar][NMeV]; ester I:1-I:C, II:1-II:C; linker I:N-II:N via Actinocin(9to1)) | 44 ± 11 | 84 ± 11 | 55 ± 9 | 35 ± 8 | – | – | duration of suppression of cell growth (smooth muscle cells): suppresses cell growth for only a short period of time
2 | C[C@@H]1C[C@H]2[C@@H]3CCC4=CC(=O)C=C[C@]4(C)[C@@]3(F)[C@@H](O)C[C@]2(C)[C@@]1(O)C(=O)CO [Dexamethasone] | – | – | – | – | – | – | Chemical stability through sheet formation, drying storage, and elution process [1]: confirmed
3 | CN(Cc1cnc2nc(N)nc(N)c2n1)c1ccc(C(=O)N[C@@H](CCC(=O)O)C(=O)O)cc1 [Methotrexate] | 32 ± 9 | 14 ± 3 | 23 ± 12 | 28 ± 6 | – | – | –
4 | CC(=O)O[C@H]1C(=O)[C@@]2(C)[C@H]([C@H](OC(=O)c3ccccc3)[C@]3(O)C[C@H](OC(=O)[C@H](O)[C@@H](NC(=O)c4ccccc4)c4ccccc4)C(C)=C1C3(C)C)[C@]1(OC(C)=O)CO[C@@H]1C[C@@H]2O [Paclitaxel] | 88 ± 6 | 90 ± 4 | 98 ± 5 | 62 ± 11 | inhibit proliferation | inhibit proliferation | –
5 | CO[C@H]1C[C@@H]2CC[C@@H](C)[C@@](O)(O2)C(=O)C(=O)N2CCCC[C@H]2C(=O)O[C@H]([C@H](C)C[C@@H]2CC[C@@H](O)[C@H](OC)C2)CC(=O)[C@H](C)/C=C(\C)[C@@H](O)[C@@H](OC)C(=O)[C@H](C)C[C@H](C)/C=C/C=C/C=C/1C [Rapamycin, (3S,6R,7E,9R,10R,12R,14S,15E,17E,19E,21S,23S,26R,27R,34aS)-9,10,12,13,14,21,22,23,24,25,26,27,32,33,34,34a-hexadecahydro-9,27-dihydroxy-3-[(1R)-2[(1S,3R,4R)-4-hydroxy-3-methoxycyclohexyl]-1-methylethyl]10,21-dimethoxy-6,8,12,14,20,26-hexamethyl-23,27-epoxy-3H-pyrido[2,1-c][1,4] oxaazacyclohentriacontine-1,5,11,28,29 (4H,6H,31H)-pentone] | 94 ± 5 | – | 137 ± 8 | 90 ± 12 | inhibit proliferation | inhibit proliferation | duration of suppression of cell growth (smooth muscle cells): suppression of cell growth continued throughout the observation period; time of peak release from saturated collagen matrix [3]: about seven; Expression of p21 mRNA in venous tissue at the perianastamotic site ([4]; 30 days, PCR, not in controls): observed; neointimal hyperplasia at venous anastomosis ([4]; collagen sleeve approximately 500 μg/cm^2, 30 days): minimal to absent; luminal patency of the vein and the graft ([4]; collagen sleeve approximately 500 μg/cm^2, 30 days, vs controls): significantly higher luminal patency; Collagen degradation ([5]; Dose 2 compared with the control group): significant; degree of fibrosis ([5]; control group vs. treatment groups): significant difference; degree of inflammation ([5]; treated vs controls): no statistical difference; Inhibitory concentrations for smooth muscle cell (smooth muscle cell [6]): 0.001 to 0.005 µg/mL
6 | C=CC[C@@H]1/C=C(\C)C[C@H](C)C[C@H](OC)[C@H]2O[C@@](O)(C(=O)C(=O)N3CCCC[C@H]3C(=O)O[C@H](/C(C)=C/[C@@H]3CC[C@@H](O)[C@H](OC)C3)[C@H](C)[C@@H](O)CC1=O)[C@H](C)C[C@@H]2OC [Tacrolimus] | – | – | – | – | sparing endothelial cells | preferentially inhibit new DNA synthesis in human smooth muscle cells | –
7 | CN(C)[C@@H]1C(O)=C(C(N)=O)C(=O)[C@@]2(O)C(O)=C3C(=O)c4c(O)cccc4[C@@](C)(O)[C@H]3C[C@@H]12 [Tetracycline] | 11 ± 8 | – | – | 13 ± 5 | – | – | –
8 | Heparin | – | – | – | – | – | – | concentration that effectively inhibits smooth muscle cell proliferation (smooth muscle cell [7]): about 100 u/ml; duration of in vitro elution of heparin [8]: seven; Eluted Heparin Mass ([8]; Time 0 days): 0 u/ml; Eluted Heparin Mass ([8]; Time 1 days): 341 u/ml; Eluted Heparin Mass ([8]; Time 2 days): 275 u/ml; Eluted Heparin Mass ([8]; Time 3 days): 188 u/ml; Eluted Heparin Mass ([8]; Time 4 days): 103 u/ml; Eluted Heparin Mass ([8]; Time 5 days): 57 u/ml; Eluted Heparin Mass ([8]; Time 6 days): 24 u/ml; Eluted Heparin Mass ([8]; Time 7 days): 8 u/ml; time for which eluted heparin can significantly inhibit smooth muscle cell proliferation ([8]; from the elution profile and about 100 u/ml): at least four
